Assay results published in PMC12519824, “Fatal outcome of severe serotonin syndrome and acute respiratory distress syndrome after self-poisoning with paroxetine: a case report” (Journal of Medical Case Reports, 2025).
Like-named read-outs stand apart in the source and are kept apart here.

Assays:
[1] = N-acetylcysteine treatment after paracetamol overdose (Prescott regimen); format: in vivo, human; details: 8000 mg paracetamol (160 mg/kg) ingested; e.g. elevated transaminases
Protocol: (§1) A person with an estimated body weight of 50 kg ingested a total amount of 3150 mg agomelatine (63 mg/kg), 4000 mg paroxetine (80 mg/kg), 8000 mg paracetamol (160 mg/kg), 5000 mg acetylsalicylic acid (100 mg/kg), 1000 mg caffeine (20 mg/kg), and 25,200 mg ibuprofen (504 mg/kg) in suicidal intent (total of 336 pills). […] The patient was reported to be on regular paroxetine therapy. However, the exact dosage and frequency of intake were unknown. […] Owing to reported paracetamol overdose, N-acetylcysteine was administered (Fig. 1) according to the regimen described by Prescott et al.. All other medication—except for paroxetine—was deemed to be no longer clinically relevant by the contacted poison information center, based on the time elapsed since ingestion. […] The patient was then transferred to our tertiary care institution for specialized ARDS treatment. […] Therefore, a symptomatic therapy with olanzapine (10 mg/day) was started. Analgosedation with sufentanil was switched to hydromorphone to prevent further aggregation of serotonin, and corticosteroids were administered in an attempt to enhance paroxetine elimination by CYP2D6 induction. […] Once vv-ECMO was initiated, CytoSorb™ hemoadsorption could easily be added in an attempt to eliminate paroxetine.

[2] = cited from earlier work
[3] = Serum paroxetine level monitoring after self-poisoning; format: in vivo, human
Text: However, the exact dosage and frequency of intake were unknown. […] As no severe life-threatening serotonin syndrome symptoms were present at that point and the patient´s condition kept improving, the decision for supportive treatment was made. […] Once vv-ECMO was initiated, CytoSorb™ hemoadsorption could easily be added in an attempt to eliminate paroxetine.

[4] = cited from earlier work; remark: listed apart in the source
[5] = Clinical course of paroxetine overdose in multidrug self-poisoning (case report); format: in vivo, human
Protocol: as §1

[6] = indicated value of the test laboratory; ref test laboratory; cited from earlier work
[7] = during serotonin syndrome attributed to paroxetine overdose

CC(=O)N[C@@H](CS)C(=O)O [acetylcysteine, N-acetylcysteine]
development of paracetamol poisoning after treatment [1]: no clinically relevant paracetamol poisoning

COc1ccc(C(CN(C)C)C2(O)CCCCC2)cc1 (stereo not shown) [venlafaxine]
adverse events after intentional overdose in a case report [2]: tremors, muscle rigidity, and sustained ankle clonus, followed by ARDS

Fc1ccc([C@@H]2CCNC[C@H]2COc2ccc3c(c2)OCO3)cc1 [paroxetine]
time with paroxetine levels in the lethal dose range ([3]; after ingestion of 4000 mg paroxetine): 20 days | concentration at 8 day ([3]; human, serum, oral, day 8 after ingestion of 4000 mg paroxetine (80 mg/kg), multidrug poisoning, one patient): 3410 ng/mL | plasma protein binding ([4]; at therapeutic doses): 95% | therapeutic half-life [4]: 7 to 37 h | volume of distribution [4]: 17 L/kg | prolonged half-life in poisoning ([4]; poisoning with a dose of 1 g paroxetine): 220 h | prolonged half-life in poisoning ([4]; poisoning with a dose of 2 g paroxetine): 190 h | clinical toxicity after overdose ([5]; 4000 mg paroxetine with co-ingested drugs, person): severe serotonin syndrome complicated by acute respiratory distress syndrome | outcome ([5]; 4000 mg paroxetine, despite CytoSorb, corticosteroids, olanzapine 10 mg/day and intensive care): the patient died on day 20 postingestion | onset of serotonin syndrome (day after ingestion) ([5]; 4000 mg paroxetine, persisted until death on day 20): 5 days | recurrent fever [5, 7]: up to 39.5 °C | tachycardia [5, 7]: up to 142 bpm | hypotension ([5]; during serotonin syndrome attributed to paroxetine overdose, printed 'hypotension up to', catecholamines needed): up to 82/52 | critical value of paroxetine level [6]: > 120 ng/mL | therapeutic range of paroxetine level [6]: 20 to 65 ng/mL | complication of poisoning in a previous case report ([2]; paroxetine poisoning): severe ARDS | adverse event with therapeutic intake in one patient ([2]; stopped after paroxetine discontinuation): recurrent ARDS
